Test results reported in publication PMC10004634 (PLOS ONE, 2023).
Where two headings read alike, the source gives them in different places.

What was measured:
Assay in all cases: biochemical
Parameters in all cases: KINOMEscan scanMAX competition binding, DNA-tagged kinases, qPCR read-out, percent control at 300 nM
[1] = biological target: FGFR3(G697C) (Homo sapiens, UniProt P22607, G697C)
[2] = biological target: PRKD2 (Homo sapiens, UniProt Q9BZL6)
[3] = biological target: CSNK1G2 (Homo sapiens, UniProt P78368)
[4] = biological target: PAK3 (Homo sapiens, UniProt O75914)
[5] = biological target: FGFR4 (Homo sapiens, UniProt P22455)
[6] = biological target: PRKCI (Homo sapiens, UniProt P41743)
[7] = biological target: MKNK2 (Homo sapiens, UniProt Q9HBH9)
[8] = biological target: DAPK1 (Homo sapiens, UniProt P53355)
[9] = biological target: T1, ABL1(F317L)-phosphorylated (Homo sapiens, UniProt P00519, F317L)
T1 construct: phosphorylated

[10] = biological target: T2, ABL1(T315I)-phosphorylated (Homo sapiens, UniProt P00519, T315I)
T2 construct: phosphorylated

[11] = biological target: T3, MRCKB (Homo sapiens, UniProt Q9Y5S2)
T3 construct: gene CDC42BPB

[12] = biological target: TAOK3 (Homo sapiens, UniProt Q9H2K8)
[13] = biological target: INSRR (Homo sapiens, UniProt P14616)
[14] = biological target: EPHB4 (Homo sapiens, UniProt P54760)
[15] = biological target: T4, RSK2(Kin.Dom.1-N-terminal) (Homo sapiens, UniProt P51812)
T4 construct: gene RPS6KA3; Kin.Dom.1-N-terminal

[16] = biological target: T5, ABL1(E255K)-phosphorylated (Homo sapiens, UniProt P00519, E255K)
T5 construct: phosphorylated

[17] = biological target: NLK (Homo sapiens, UniProt Q9UBE8)
[18] = biological target: T6, ERK4 (Homo sapiens, UniProt P31152)
T6 construct: gene MAPK4

[19] = biological target: T7, RSK3(Kin.Dom.1-N-terminal) (Homo sapiens, UniProt Q15349)
T7 construct: gene RPS6KA2; Kin.Dom.1-N-terminal

[20] = biological target: TLK1 (Homo sapiens, UniProt Q9UKI8)
[21] = biological target: BMPR1A (Homo sapiens, UniProt P36894)
[22] = biological target: T8, RSK1(Kin.Dom.2-C-terminal) (Homo sapiens, UniProt Q15418)
T8 construct: gene RPS6KA1; Kin.Dom.2-C-terminal

[23] = read-out: Percent control / Acalabrutinib
[24] = read-out: Percent control / Ibrutinib
[25] = read-out: Percent control / Tirabrutinib
[26] = read-out: Percent control / Zanubrutinib

Sequence of PAK3 (O75914 whole entry): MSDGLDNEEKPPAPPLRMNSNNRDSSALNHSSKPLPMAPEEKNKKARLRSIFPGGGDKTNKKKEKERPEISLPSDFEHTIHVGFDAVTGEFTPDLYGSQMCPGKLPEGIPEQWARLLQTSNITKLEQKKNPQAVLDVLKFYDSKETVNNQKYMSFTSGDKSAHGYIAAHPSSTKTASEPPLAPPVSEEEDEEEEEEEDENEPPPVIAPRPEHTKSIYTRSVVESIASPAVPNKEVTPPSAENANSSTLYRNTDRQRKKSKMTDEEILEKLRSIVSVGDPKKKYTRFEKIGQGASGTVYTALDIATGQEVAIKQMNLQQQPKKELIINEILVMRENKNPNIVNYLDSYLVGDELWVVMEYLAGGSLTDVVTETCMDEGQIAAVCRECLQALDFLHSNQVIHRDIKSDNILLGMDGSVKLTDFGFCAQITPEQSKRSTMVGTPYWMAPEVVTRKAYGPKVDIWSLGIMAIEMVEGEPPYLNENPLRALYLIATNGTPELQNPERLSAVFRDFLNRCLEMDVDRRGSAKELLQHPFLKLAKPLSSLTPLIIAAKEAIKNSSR
Sequence of DAPK1 (P53355 whole entry): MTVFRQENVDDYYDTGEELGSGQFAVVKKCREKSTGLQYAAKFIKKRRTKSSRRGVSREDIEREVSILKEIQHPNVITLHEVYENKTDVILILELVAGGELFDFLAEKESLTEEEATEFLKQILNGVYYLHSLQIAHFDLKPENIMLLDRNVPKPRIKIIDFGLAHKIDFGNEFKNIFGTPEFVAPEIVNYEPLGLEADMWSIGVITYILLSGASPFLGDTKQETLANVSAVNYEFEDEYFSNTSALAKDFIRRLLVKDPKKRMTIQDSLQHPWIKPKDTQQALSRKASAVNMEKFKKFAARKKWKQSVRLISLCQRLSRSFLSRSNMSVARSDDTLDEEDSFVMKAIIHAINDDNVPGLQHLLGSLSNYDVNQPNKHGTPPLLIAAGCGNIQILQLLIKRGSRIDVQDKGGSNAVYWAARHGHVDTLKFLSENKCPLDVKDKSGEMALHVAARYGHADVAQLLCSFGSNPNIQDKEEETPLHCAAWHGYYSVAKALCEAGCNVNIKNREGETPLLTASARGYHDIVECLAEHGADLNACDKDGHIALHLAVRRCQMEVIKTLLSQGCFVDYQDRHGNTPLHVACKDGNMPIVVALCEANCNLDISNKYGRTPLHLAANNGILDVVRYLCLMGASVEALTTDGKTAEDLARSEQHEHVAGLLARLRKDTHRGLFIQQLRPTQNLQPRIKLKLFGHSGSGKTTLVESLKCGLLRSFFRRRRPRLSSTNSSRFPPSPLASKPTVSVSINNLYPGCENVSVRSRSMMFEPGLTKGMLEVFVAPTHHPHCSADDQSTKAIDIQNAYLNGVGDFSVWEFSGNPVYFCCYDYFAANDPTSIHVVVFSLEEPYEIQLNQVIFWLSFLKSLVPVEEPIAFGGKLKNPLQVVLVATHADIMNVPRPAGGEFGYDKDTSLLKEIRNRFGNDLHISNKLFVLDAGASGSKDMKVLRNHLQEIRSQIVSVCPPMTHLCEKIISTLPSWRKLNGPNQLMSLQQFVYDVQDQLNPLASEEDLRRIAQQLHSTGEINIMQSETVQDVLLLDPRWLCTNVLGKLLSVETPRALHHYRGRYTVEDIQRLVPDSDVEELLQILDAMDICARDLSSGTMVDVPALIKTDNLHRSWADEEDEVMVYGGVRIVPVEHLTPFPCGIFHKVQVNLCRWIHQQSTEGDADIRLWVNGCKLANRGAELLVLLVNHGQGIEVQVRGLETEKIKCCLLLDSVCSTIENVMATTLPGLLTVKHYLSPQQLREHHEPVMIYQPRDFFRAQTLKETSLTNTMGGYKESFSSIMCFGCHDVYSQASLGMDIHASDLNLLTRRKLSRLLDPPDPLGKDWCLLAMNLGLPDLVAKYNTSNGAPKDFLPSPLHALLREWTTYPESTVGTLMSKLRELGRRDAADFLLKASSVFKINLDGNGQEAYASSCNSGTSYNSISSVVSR
Sequence of NLK (Q9UBE8 whole entry): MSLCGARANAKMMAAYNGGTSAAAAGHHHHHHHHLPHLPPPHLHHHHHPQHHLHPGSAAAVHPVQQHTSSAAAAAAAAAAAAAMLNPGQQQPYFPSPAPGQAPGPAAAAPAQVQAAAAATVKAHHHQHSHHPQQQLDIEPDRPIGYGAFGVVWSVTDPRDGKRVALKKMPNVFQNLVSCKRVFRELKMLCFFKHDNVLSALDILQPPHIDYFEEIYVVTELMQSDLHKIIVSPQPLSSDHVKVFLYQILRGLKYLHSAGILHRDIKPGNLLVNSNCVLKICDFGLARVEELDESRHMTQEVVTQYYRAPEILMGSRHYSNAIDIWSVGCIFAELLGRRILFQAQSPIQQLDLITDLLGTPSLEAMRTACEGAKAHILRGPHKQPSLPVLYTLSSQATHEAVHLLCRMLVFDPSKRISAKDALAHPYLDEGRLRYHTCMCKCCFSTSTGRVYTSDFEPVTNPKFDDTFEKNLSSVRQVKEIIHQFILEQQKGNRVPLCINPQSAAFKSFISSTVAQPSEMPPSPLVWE
Sequence of TAOK3 (Q9H2K8 whole entry): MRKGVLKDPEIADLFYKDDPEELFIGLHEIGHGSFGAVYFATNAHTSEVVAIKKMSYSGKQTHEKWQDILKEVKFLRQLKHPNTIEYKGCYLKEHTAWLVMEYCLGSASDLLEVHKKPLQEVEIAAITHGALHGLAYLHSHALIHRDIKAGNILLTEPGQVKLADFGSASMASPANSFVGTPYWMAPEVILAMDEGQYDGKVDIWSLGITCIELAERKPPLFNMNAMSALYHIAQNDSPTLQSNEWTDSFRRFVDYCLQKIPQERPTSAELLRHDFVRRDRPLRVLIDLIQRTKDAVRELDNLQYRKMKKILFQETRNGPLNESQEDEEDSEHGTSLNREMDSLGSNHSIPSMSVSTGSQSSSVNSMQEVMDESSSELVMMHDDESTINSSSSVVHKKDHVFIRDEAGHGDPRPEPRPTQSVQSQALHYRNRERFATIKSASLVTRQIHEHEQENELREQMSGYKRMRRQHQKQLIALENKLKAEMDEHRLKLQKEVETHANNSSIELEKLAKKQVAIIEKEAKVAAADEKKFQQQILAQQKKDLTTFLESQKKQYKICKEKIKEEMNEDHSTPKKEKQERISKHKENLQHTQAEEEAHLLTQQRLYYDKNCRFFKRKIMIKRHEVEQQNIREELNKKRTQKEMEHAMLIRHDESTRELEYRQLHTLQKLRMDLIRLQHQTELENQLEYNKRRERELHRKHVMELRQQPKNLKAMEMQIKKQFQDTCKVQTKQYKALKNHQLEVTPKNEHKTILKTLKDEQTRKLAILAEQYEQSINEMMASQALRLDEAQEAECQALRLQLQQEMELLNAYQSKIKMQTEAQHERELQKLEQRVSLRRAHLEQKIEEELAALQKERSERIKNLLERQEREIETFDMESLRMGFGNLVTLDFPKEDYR
Sequence of EPHB4 (P54760 whole entry): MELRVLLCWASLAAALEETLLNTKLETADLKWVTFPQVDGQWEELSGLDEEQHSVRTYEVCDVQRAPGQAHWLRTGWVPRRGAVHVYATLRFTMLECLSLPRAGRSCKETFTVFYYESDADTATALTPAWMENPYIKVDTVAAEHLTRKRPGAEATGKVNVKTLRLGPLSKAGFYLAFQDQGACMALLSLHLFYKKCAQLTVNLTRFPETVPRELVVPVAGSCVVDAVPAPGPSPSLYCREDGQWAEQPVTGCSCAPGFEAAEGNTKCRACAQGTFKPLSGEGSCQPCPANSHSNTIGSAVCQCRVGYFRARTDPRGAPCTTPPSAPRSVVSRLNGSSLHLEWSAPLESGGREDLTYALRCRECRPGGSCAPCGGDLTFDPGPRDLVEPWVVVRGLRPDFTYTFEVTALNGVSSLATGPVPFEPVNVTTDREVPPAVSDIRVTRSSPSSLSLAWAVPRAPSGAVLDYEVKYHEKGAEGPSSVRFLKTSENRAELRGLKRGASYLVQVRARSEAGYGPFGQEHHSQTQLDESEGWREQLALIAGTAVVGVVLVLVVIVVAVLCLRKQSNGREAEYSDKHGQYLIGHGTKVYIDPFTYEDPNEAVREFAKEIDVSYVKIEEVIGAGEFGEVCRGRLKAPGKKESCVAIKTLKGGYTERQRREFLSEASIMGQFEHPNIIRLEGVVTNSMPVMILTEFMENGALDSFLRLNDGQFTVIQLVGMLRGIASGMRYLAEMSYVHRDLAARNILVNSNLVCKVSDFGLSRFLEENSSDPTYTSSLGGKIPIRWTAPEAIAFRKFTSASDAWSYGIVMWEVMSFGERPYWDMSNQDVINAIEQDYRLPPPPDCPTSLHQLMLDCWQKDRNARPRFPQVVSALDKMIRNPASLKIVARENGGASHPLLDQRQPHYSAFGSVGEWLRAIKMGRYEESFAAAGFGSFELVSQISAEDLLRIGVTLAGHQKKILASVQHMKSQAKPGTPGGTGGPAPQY
Sequence of BMPR1A (P36894 whole entry): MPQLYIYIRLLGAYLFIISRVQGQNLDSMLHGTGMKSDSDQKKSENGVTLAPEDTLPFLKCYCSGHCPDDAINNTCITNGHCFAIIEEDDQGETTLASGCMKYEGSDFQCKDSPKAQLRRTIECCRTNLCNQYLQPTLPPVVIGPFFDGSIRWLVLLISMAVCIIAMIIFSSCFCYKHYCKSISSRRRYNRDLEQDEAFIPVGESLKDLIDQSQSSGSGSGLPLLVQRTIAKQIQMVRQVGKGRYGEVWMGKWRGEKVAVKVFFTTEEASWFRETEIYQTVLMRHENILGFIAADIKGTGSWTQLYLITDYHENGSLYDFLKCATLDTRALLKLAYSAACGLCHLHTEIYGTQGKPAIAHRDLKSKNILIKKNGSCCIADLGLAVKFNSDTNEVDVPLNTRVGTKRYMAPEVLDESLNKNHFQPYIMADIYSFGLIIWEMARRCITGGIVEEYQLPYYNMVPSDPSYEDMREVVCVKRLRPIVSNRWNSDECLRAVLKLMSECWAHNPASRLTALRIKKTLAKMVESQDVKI

CC#CC(=O)N1CCC[C@H]1c1nc(-c2ccc(C(=O)Nc3ccccn3)cc2)c2c(N)nccn12 [Acalabrutinib]
remaining binding at 0.3 µM [1, 23]: 79% | remaining binding at 0.3 µM [2, 23]: 70% | remaining binding at 0.3 µM [3, 23]: 87% | remaining binding at 0.3 µM [4, 23]: 77% | remaining binding at 0.3 µM [5, 23]: 91% | remaining binding at 0.3 µM [6, 23]: 87% | remaining binding at 0.3 µM [7, 23]: 93% | remaining binding at 0.3 µM [8, 23]: 94% | remaining binding at 0.3 µM [9, 23]: 81% | remaining binding at 0.3 µM [10, 23]: 97% | remaining binding at 0.3 µM [11, 23]: 93% | remaining binding at 0.3 µM [12, 23]: 99% | remaining binding at 0.3 µM [13, 23]: 91% | remaining binding at 0.3 µM [14, 23]: 93% | remaining binding at 0.3 µM [15, 23]: 84% | remaining binding at 0.3 µM [16, 23]: 95% | remaining binding at 0.3 µM [17, 23]: 78% | remaining binding at 0.3 µM [18, 23]: 96% | remaining binding at 0.3 µM [19, 23]: 85%

C=CC(=O)N1CCC[C@@H](n2nc(-c3ccc(Oc4ccccc4)cc3)c3c(N)ncnc32)C1 [Ibrutinib]
remaining binding at 0.3 µM [1, 24]: 77% | remaining binding at 0.3 µM [20, 24]: 80% | remaining binding at 0.3 µM [21, 24]: 99% | remaining binding at 0.3 µM [12, 24]: 98%

CC#CC(=O)N1CC[C@@H](n2c(=O)n(-c3ccc(Oc4ccccc4)cc3)c3c(N)ncnc32)C1 [Tirabrutinib]
remaining binding at 0.3 µM [9, 25]: 57% | remaining binding at 0.3 µM [10, 25]: 73% | remaining binding at 0.3 µM [22, 25]: 88%

C=CC(=O)N1CCC([C@@H]2CCNc3c(C(N)=O)c(-c4ccc(Oc5ccccc5)cc4)nn32)CC1 [Zanubrutinib]
remaining binding at 0.3 µM [2, 26]: 100% | remaining binding at 0.3 µM [3, 26]: 88% | remaining binding at 0.3 µM [4, 26]: 83% | remaining binding at 0.3 µM [5, 26]: 91% | remaining binding at 0.3 µM [6, 26]: 68% | remaining binding at 0.3 µM [7, 26]: 84% | remaining binding at 0.3 µM [20, 26]: 92% | remaining binding at 0.3 µM [8, 26]: 87% | remaining binding at 0.3 µM [21, 26]: 90% | remaining binding at 0.3 µM [11, 26]: 90% | remaining binding at 0.3 µM [22, 26]: 92% | remaining binding at 0.3 µM [13, 26]: 96% | remaining binding at 0.3 µM [14, 26]: 87% | remaining binding at 0.3 µM [15, 26]: 82% | remaining binding at 0.3 µM [16, 26]: 80% | remaining binding at 0.3 µM [17, 26]: 80% | remaining binding at 0.3 µM [18, 26]: 99% | remaining binding at 0.3 µM [19, 26]: 100%
